From patent publication US6653110B2 (Ajinomoto Co., Inc., priority 2001, dated 2003)

Tested on: Enterobacter agglomerans AJ13601 strain
Test: Growth inhibition by organic acid at acidic pH (main culture in jar fermenter)
Format: cell-based
Settings: for Growth inhibition: organic acid 0.5 g/L in main culture medium, pH 4.5, 34° C.
Experimental: Therefore, an experiment concerning the growth inhibition by an organic acid was performed at an acidic pH.
The Enterobacter agglomerans AJ13601 strain was cultured on LBG agar medium (10 g/L of trypton, 5 g/L of yeast extract, 10 g/L of NaCl and 15 g/L of agar) containing 25 mg/L of tetracycline hydrochloride and 25 mg/L of chloramphenicol at 30° C. for 14 hours, and one platinum loop of the cells were taken and inoculated into 300 mL of a seed culture medium having the following composition in a 1 L-volume jar fermenter to perform seed culture at 34° C. at pH 6.0.
50 g/L of sucrose, 0.4 g/L of magnesium sulfate heptahydrate, 4.0 g/L of ammonium sulfate, 2.0 g/L of monopotassium dihydrogenphosphate, 4.0 g/L of yeast extract, 0.01 g/L of ferrous sulfate heptahydrate, 0.01 g/L manganese sulfate pentahydrate, 0.4 g/L of L-lysine hydrochloride, 0.4 g/L of DL-methionine, 0.4 g/L of DL-α,ε-diaminopimelic acid, 25 mg/L of tetracycline hydrochloride and 25 mg/L of chloramphenicol
pH was controlled by adding ammonia gas during the culture. The seed culture was terminated by observing depletion of the saccharide in the seed culture medium as a marker, and the seed culture broth was inoculated into 300 mL of a main culture medium contained in 1 L-volume jar fermenters in an amount of 20% of the volume of the main culture medium to perform the main culture. The composition of the main culture medium is shown below. When an experiment for the growth inhibition by an organic acid is performed, the experiment was performed by adding the organic acid at a predetermined concentration.
20 g/L of glucose, 0.4 g/L of magnesium sulfate heptahydrate, 5.0 g/L of ammonium sulfate, 6.0 g/L of monopotassium dihydrogenphosphate, 1.5 g/L of sodium chloride, 0.01 g/L of ferrous sulfate heptahydrate, 0.01 g/L of manganese sulfate pentahydrate, 0.8 g/L of L-lysine hydrochloride, 0.6 g/L of DL-methionine, 0.6 g/L of DL-α,ε-diaminopimelic acid, 25 mg/L of tetracycline hydrochloride, 25 mg/L of chloramphenicol, 6.0 g/L of yeast extract and 0.75 g/L of calcium chloride dihydrate
The culture temperature was adjusted to 34° C., and pH was controlled to a predetermined pH by adding ammonia gas.
Experiments for the growth inhibition effect at an acidic pH (pH 4.5) were first performed with various organic acids.

Q: Which results are given for `CC(=O)O` [Acetic acid]?
A: Growth inhibition: Observed; Growth inhibition (listed as acetic acid): evident growth inhibition

Q: Which growth of cells (formic acid 0.5 g/L, pH 4.5 (FIG. 11)) does the source give for `O=CO` [Formic acid] here?
A: hardly observed

Q: What about the “pH region in which growth inhibition by formic acid was not observed” value (formic acid concentration 0.5 g/L, inhibition observed at lower pH (FIG. 11)) of the same molecule?
A: ≥ 5.5

Q: And the Growth inhibition?
A: Observed

Q: What about the Growth inhibition (listed as formic acid) of the same molecule?
A: evident growth inhibition

Q: What about the “formic acid concentration in the medium at which growth inhibition was not observed” value (pH 4.5 (FIG. 12)) of the same molecule?
A: ≤ 0.20 g/L

Q: For `CC(O)C(=O)O` (stereo not drawn) [Lactic acid], which Growth inhibition is on record?
A: Not observed

Q: What about the Growth inhibition (listed as lactic acid) of the same molecule?
A: growth rate comparable to that obtained with the control medium

Q: What does the source list for `CCC(=O)O` [Propionic acid]?
A: Growth inhibition: Observed; Growth inhibition (listed as propionic acid): evident growth inhibition

Q: `O=C(O)CCC(=O)O` [Succinic acid] was tested. Which Growth inhibition did it give?
A: Not observed

Q: And the Growth inhibition (listed as succinic acid)?
A: did not show growth inhibition

Q: With `O=C(O)/C=C/C(=O)O` [fumaric acid] as the molecule, how does the Growth inhibition read?
A: did not show growth inhibition

Q: `O=C(O)CC(O)C(=O)O` (stereo not drawn) [malic acid] was tested. Which Growth inhibition did it give?
A: did not show growth inhibition
